Source: EP3936128A1, “ACTIVE SUBSTANCE AGAINST PROTOZOA” (Christian-Albrechts-Universität zu Kiel, priority 2020, dated 2022)
Read-outs that look alike come from different tables or passages of the source.

What was measured:
Assay type in all cases: cell-based
PfFNT G107S = target: T1, PfFNT G107S (Plasmodium falciparum, UniProt O77389, G107S); assay: Inhibition of radiolabelled L-lactate uptake in yeast expressing G107S mutant PfFNT
T1 construct: expressed in transfected cells; host or cells: Saccharomyces cerevisiae W303-1A jen1Δ ady2Δ, plasmid pDR196
T1 sequence (O77389 1-309 G107S): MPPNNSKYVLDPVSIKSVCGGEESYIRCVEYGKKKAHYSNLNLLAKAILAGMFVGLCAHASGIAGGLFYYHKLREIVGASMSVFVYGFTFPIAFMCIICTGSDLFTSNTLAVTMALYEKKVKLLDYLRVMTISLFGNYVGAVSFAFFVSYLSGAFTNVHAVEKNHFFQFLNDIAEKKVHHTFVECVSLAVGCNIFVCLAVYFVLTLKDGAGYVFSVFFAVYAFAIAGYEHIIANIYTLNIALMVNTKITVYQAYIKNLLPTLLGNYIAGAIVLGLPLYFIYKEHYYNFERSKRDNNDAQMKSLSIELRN
Description: (§1) Plasmodium falciparum were kept in culture in 5% 0+ erythrocytes in RPMI 1640 medium containing 0,5% Albumax at 37 °C. […] Medium containing test compounds was exchanged every 24 h. In order to test for the propensity of parasites to develop resistance to a given substance, 3D7 parasites were grown in the presence of 3 x IC50 of a test for 30 days. Thereafter the drug was removed by exchanging the medium, and the day recorded when parasites resurfaced in the culture. As an alternative to Plasmodium falciparum, the FNT of the wild-type plasmodium (available under accession number PF3D7_0316600 in the data bank PlasmoDB) and the FNT (G107S mutant FNT) of the resistant plasmodia were expressed in the yeast Saccharomyces cerevisiae W303-1A jen1Δ ady2Δ from plasmid pDR196 (PMA promoter). In the yeast, the endogenous genes for the monocarboxylate transporter Jen1p (sequence accession No. CAA82062 NCBI) and Ady2p (sequence accession No. KZV12856) were deleted (obtained from M. Casal, Universidade do Minho, Portugal).
(§2) This yeast was grown in SD medium with addition of adenine, histidine, leucine, tryptophan and 2 % (wt/v) glucose at 30 °C up to an OD600 of 0.8 to 1.0, harvested by centrifugation and washed once with water and centrifuged down again, and suspended in 50 mM HEPES/TRIS (pH 6.8) and adjusted to an OD600 of 50± 10% and stored on ice. For contacting with one of the compounds a compound of one step of a dilution series in DMSO was provided in a reaction vessel and onto this 80 µL of the yeast suspension were pipetted. After an incubation on ice for 15 to 20 min 20 µL 5 mM Na-L-lactate plus 0.04 µCi radioactively labelled L-(1-^14C) lactate was added. The lactate concentration obtained was 1 mM. After an incubation of 30 s the uptake of lactate was stopped by a rapid dilution by means of adding of 1 ml ice cold water. From the yeast suspension diluted this way the yeast cells were brought onto a filter membrane by vacuum filtration, washed with 7 ml cold water and transferred with the filter membrane into 3 ml scintillation cocktail. After 24 h of incubation at 18 °C in the scintillation cocktail, in which the cells were lysed, the amount of radioactively labelled lactate was measured by means of a scintillation counter. The total amount of lactate which was taken up by the yeast was calculated from the measured amount of radioactively labelled lactate. As a positive control the yeast was treated equally in parallel testing with DMSO without one of the compounds and was regarded as 100% FNT activity, respectively 0% inhibition. In tests with the compound a lower amount of lactate taken up was found in comparison to the parallel positive control. As a negative control yeast was treated in parallel in which the endogenous genes for the monocarboxylate transporters Jen1p and Ady2p were deleted, but the FNT from plasmodium was not expressed. This negative control was regarded as 0% FNT activity, respectively 100% inhibition.

FNT of P. vivax (PvFNT) = FNT of P. vivax (PvFNT) (Plasmodium vivax, UniProt A0A1G4GWI6); assay: Inhibition of the FNT of P. vivax
Chain of FNT of P. vivax (PvFNT) (A0A1G4GWI6 whole entry): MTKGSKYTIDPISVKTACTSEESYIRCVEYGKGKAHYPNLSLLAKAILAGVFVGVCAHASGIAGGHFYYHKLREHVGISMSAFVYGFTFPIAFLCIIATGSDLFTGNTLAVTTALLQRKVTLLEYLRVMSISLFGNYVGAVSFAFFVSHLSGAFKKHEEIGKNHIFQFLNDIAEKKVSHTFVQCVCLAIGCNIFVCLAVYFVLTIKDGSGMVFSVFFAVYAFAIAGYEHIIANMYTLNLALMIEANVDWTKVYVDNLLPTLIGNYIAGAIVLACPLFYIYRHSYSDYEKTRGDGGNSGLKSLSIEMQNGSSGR

[1] = target: FNT of P. knowlesi (PkFNT) (Plasmodium knowlesi, UniProt A0A679KXN5); assay: Inhibition of the FNT of P. knowlesi
Chain of FNT of P. knowlesi (PkFNT) (A0A679KXN5 whole entry): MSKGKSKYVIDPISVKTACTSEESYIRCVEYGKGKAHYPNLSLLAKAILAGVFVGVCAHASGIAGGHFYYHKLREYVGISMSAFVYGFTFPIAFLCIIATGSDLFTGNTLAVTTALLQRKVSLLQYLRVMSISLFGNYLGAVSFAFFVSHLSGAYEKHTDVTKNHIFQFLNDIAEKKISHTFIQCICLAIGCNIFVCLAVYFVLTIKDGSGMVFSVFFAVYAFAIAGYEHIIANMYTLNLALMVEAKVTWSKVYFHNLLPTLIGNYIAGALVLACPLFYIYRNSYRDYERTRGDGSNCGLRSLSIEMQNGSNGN

PfFNT wildtype = target: T2, PfFNT wildtype (Plasmodium falciparum, UniProt O77389); assay: Inhibition of radiolabelled L-lactate uptake in yeast expressing wild-type PfFNT
T2 construct: expressed in transfected cells; host or cells: Saccharomyces cerevisiae W303-1A jen1Δ ady2Δ, plasmid pDR196
T2 sequence (O77389 whole entry): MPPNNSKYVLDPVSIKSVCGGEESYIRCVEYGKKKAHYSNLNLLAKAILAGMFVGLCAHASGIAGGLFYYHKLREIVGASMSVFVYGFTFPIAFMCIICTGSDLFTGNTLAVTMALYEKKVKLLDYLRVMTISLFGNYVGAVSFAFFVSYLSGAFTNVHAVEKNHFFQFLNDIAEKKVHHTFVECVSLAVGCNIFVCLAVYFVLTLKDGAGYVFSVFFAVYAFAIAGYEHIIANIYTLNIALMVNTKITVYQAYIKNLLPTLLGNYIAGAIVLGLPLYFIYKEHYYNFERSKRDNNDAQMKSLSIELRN
Description: as §1, §2

FNT of P. ovale (PoFNT) = FNT of P. ovale (PoFNT) (Plasmodium ovale, UniProt A0A1D3TGZ2); assay: Inhibition of the FNT of P. ovale
Chain of FNT of P. ovale (PoFNT) (A0A1D3TGZ2 whole entry): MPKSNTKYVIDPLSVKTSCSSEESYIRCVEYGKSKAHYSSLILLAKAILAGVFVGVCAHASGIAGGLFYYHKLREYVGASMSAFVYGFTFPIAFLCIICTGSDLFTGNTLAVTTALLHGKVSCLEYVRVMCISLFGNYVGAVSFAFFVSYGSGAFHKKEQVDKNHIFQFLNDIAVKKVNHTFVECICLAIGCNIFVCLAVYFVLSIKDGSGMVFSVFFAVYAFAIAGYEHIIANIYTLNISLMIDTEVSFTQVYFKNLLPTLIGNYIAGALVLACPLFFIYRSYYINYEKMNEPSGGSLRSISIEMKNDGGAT

[2] = target: FNT of P. malariae (PmFNT) (Plasmodium malariae, UniProt A0A1C3KYI2); assay: Inhibition of the FNT of P. malariae
Chain of FNT of P. malariae (PmFNT) (A0A1C3KYI2 whole entry): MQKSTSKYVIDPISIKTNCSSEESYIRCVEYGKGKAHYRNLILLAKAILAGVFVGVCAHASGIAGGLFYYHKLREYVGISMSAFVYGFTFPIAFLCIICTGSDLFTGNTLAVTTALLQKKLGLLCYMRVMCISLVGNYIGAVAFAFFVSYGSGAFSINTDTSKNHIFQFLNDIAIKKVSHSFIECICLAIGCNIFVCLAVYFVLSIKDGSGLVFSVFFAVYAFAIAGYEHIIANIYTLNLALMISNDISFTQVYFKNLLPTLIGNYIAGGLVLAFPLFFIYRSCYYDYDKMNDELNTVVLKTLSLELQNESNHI

[3] = G107S mutant FNT, 1 mM lactate, pH 6.8, 30 s uptake, read-out: PfFNT G107S IC50
[4] = read-out: IC50 for the FNT of P. vivax (PvFNT)

SMILES	IC50 (PfFNT G107S; [3]) [µM]	IC50 (PfFNT wildtype) [µM]	IC50 (PfFNT G107S) [µM]	further results
COc1ccc(C(=O)C=C(O)C(F)(F)C(F)(F)F)c(O)c1 [compound [1], reference compound]	21 ± 1	0.17 ± 0.01		IC50 (FNT of P. vivax (PvFNT); [4]): 0.069 ± 0.003 µM; IC50 [1]: 0.212 ± 0.07 µM
COc1ccc(C(=O)C=C(O)C(F)(F)C(F)(F)F)cc1 [compound [2], reference compound]	2.7 ± 0.2	0.14 ± 0.01		IC50 (FNT of P. ovale (PoFNT)): ~0.9 µM; IC50 [2]: 0.391 ± 0.05 µM; IC50 (FNT of P. vivax (PvFNT); [4]): 0.249 ± 0.08 µM; IC50 [1]: 0.985 ± 0.08 µM
CC(C)(O)CC(=O)C=C(O)C(F)(F)C(F)(F)F [compound [3], reference compound]	490 ± 20	1.1 ± 0.1		
O=C(C=C(O)C(F)(F)C(F)(F)F)c1ccc[nH]1 [compound [4], reference compound]	12 ± 1	0.16 ± 0.01		
O=C(C=C(O)C(F)(F)C(F)(F)F)c1cc[nH]c1 [compound [5], reference compound]	13 ± 1	0.2 ± 0.01		
Cn1ccc(C(=O)C=C(O)C(F)(F)C(F)(F)F)c1 [compound [6], reference compound]	14 ± 1	0.13 ± 0.01		
O=C(C=C(O)C(F)(F)C(F)(F)F)c1cc2ccccc2o1 [compound [7], reference compound]	17 ± 2	0.19 ± 0.01		
O=C(C=C(O)C(F)(F)C(F)(F)F)c1cccnn1 [compound [12], 4,4,5,5,5-pentafluoro-3-hydroxy-1-pyridazin-3-yl-pent-2-en-1-one]		0.86 ± 0.03	3.8 ± 0.8	
O=C(C=C(O)C(F)(F)C(F)(F)F)c1cnccn1 [compound [13], 4,4,5,5,5-pentafluoro-3-hydroxy-1-pyrazin-2-yl-pent-2-en-1-one]		0.46 ± 0.03	1.2 ± 0.3	
O=C(C=C(O)C(F)(F)C(F)(F)F)c1ccncc1 [compound [14], 4,4,5,5,5-pentafluoro-3-hydroxy-1-(4-pyridyl)pent-2-en-1-one]		0.15 ± 0.03	22 ± 7	
O=C(C=C(O)C(F)(F)C(F)(F)F)c1ccccn1 [compound [15], 4,4,5,5,5-pentafluoro-3-hydroxy-1-(2-pyridyl)pent-2-en-1-one]		0.15 ± 0.01	0.58 ± 0.09	
O=C(C=C(O)C(F)(F)C(F)(F)F)c1cccnc1 [compound [16], 4,4,5,5,5-pentafluoro-3-hydroxy-1-(3-pyridyl)pent-2-en-1-one]		0.11 ± 0.01	0.63 ± 0.05	IC50 (FNT of P. ovale (PoFNT)): 0.213 ± 0.03 µM; IC50 [2]: 0.214 ± 0.02 µM; IC50 (FNT of P. vivax (PvFNT)): 0.229 ± 0.01 µM; IC50 [1]: 0.874 ± 0.06 µM
O=C(C=C(O)C(F)(F)C(F)(F)F)c1cnc2ccccc2c1 [compound [17], 4,4,5,5,5-pentafluoro-3-hydroxy-1-(3-quinolyl)pent-2-en-1-one]		0.24 ± 0.04		IC50 (PfFNT G107S; read-out: PfFNT G107S IC50, G107S mutant FNT, 1 mM lactate, pH 6.8, 30 s uptake): 96 ± 0.8 µM
Cc1ccc(C(=O)C=C(O)C(F)(F)C(F)(F)F)cn1 [compound [18], 4,4,5,5,5-pentafluoro-3-hydroxy-1-(6-methyl-3-pyridyl)pent-2-en-1-one]		0.15 ± 0.01	1.7 ± 0.3	
O=C(C=C(O)C(F)(F)C(F)(F)F)c1ccc(Cl)cn1 [compound [19], 1-(5-chloropyridin-2-yl)-4,4,5,5,5-pentafluoro-3-hydroxypent-2-en-1-one]		0.23 ± 0.07	0.51 ± 0.09	
COc1ccc(C(=O)C=C(O)C(F)(F)C(F)(F)F)cn1 [compound [20], 4,4,5,5,5-pentafluoro-3-hydroxy-1-(6-methoxy-3-pyridyl)pent-2-en-1-one]		0.11 ± 0.01	0.26 ± 0.05	
O=C(C=C(O)C(F)(F)CO)c1cccnc1 [compound [21], 4,4-difluoro-3,5-dihydroxy-1-(3-pyridyl)pent-2-en-1-one]		5.5		
CCCCC(F)(F)C(O)=CC(=O)c1cccnc1 [compound [22], 4,4-difluoro-3-hydroxy-1-(3-pyridyl)oct-2-en-1-one]	24 ± 6	0.36 ± 0.05		
